Results reported in US5773438A, “Synthetic matrix metalloprotease inhibitors and use thereof” (Glycomed Incorporated, priority 1994, dated 1998).
“Also recorded” adds a separate entry of the source.

Experiments:
[1] = target: Stromelysin (Homo sapiens, UniProt P08254); assay: inhibition of stromelysin (Table 2); assay type: biochemical; details: read-out: Strom inhibitory activity
Experimental: Specifically, assay of inhibition activity can be conducted as follows. […] Assays for inhibition of human stromelysin are conducted as described by Teahan, J., et al., Biochemistry (1989) 20:8497-8501.
Assay of inhibition activity can be conducted using a fluorogenic substrate developed by Knight et al., FEBS Letters (1992) 296:263. This method uses a fluorometer to determine the rate of substrate hydrolysis in a 96 well plate format. Reaction rates are determined at several substrate concentrations, and multiple inhibitor levels. The data are analyzed by Lineweaver-Burk, Dixon and Henderson plot analyses (Enzyme Kinetics (1975) Irwin Segal (John Wiley & Sons, Inc., publishers), and as described by Henderson, Biochem J. (1972) 127:321). The substrate levels range from 10-30μM. […] Inhibitors may be assayed against purified 72 kD gelatinase, 92 kD gelatinase, neutrophil collagenase, stromelysin or other proteases as appropriate. The enzymes are activated at 37° C. with APMA (4-aminophenylmercuric acetate), and the assays are carried out at room temperature.

[2] = test system: corneal vessels; assay: inhibition of angiogenesis, rat cornea pellet implant (Walker 256 extract); assay type: in vivo; details: 10 mg/mL in 55% DMSO, infused into vena cava 0.8 mL/24 hr, six days
Experimental: A crude extract (30 mg/mL protein) of Walker 256 carcinoma, a rat malignant tumor, was incorporated into Hydron, a slow release polymer, in 1.5 mm diameter pellets. Pellets were implanted in the stroma of the corneas of anesthetized albino rats. […] Controls received only the DMSO solution. After six days, the animals were re-anesthetized and perfused intra-arterially with India ink in order to visualize the corneal vessels. The eyes were then enucleated and fixed in 5% formalin. Control eyes which received only the DMSO solution show massive vessel growth toward the pellet from the limbus.

[3] = test system: protease activity of chronic wound fluid; assay: Azocoll assay of protease activity in chronic wound fluid; assay type: biochemical, human
Experimental: (§1) Fluids were collected from 3 types of human wounds termed closed spontaneously healing wounds, open slowly healing wounds, and open chronic wounds. In the first category were fluids collected from the chest wall of women following mastectomy surgery. Fluids from non-infected wounds that were left open for valid surgical reasons were considered open slowly healing wounds. An occlusive dressing was placed over the wound bed, and fluids were collected after 2-6 hours of occlusion. Finally, fluids were also collected from chronic open wounds by covering the wounds with occlusive dressings. Wounds were considered to be chronic if they were not clinically infected and had been open and not healing for more than 4 weeks.
(§2) The various wound fluids were assayed for matrix metalloproteinase activity using the Azocoll assay essentially as described by Chavira, et al., Analytic Biochemistry (1984), 136:446.
(§3) The fluids were centrifuged, and the supernatants filtered using a 0.45μ sterile Gelman filter. The filtrates were stored frozen at -80° C. until tested for protease activity.
(§4) The effects of four inhibitors on the protease activity present in wound fluids were determined. The inhibitors were: compounds
Stock solutions of the four inhibitors were all prepared at a concentration of 800 μg/ml. Due to different solubility properties of the inhibitors, different techniques were utilized. […] S1209 was dissolved in 1% DMSO then dissolved in 10 mM citrate, pH 5.5, containing 0.05% methyl cellulose. 39A was dissolved in propylene glycol (to give a final concentration of 2.4%) then dissolved in 1 mM CaCl2, 50 mM Tris-Cl, pH 7.8. 21A was dissolved in propylene glycol (2.4%) methyl cellulose (0.05%) and 10 mM citrate, pH 8.
The protease substrate, Azocoll, was obtained from Sigma Chemical Corporation and it is a substrate for collagenase/gelatinase-like metalloproteinase enzymes and general proteases. Clostridium histolyticum collagenase (the crude form of the enzyme) was from Worthington Biochemicals. General chemicals including TRIS buffer, DMSO, and CaCl2 were from Sigma Chemical Corporation.
(§5) Briefly, 900 μl of the Azocoll substrate suspension in buffer ([…] in 50 mM TRIS, pH 7.8, 1 mM CaCl2) was added to 1.5 ml microcentrifuge tubes then 50 μl of inhibitor (or buffer) and 50 μl of chronic wound fluid (or collagenase standard) were added to the reaction tube. The reaction tubes were placed at 37° C. in a shaker that inverted the tubes 30 times per minute. After 24 hours of incubation, the reaction tubes were centrifuges at 10,000 X g and the absorbance of the supernatant solution was measured at 520 nm with a Milton-Roy spectrophotometer. Proteolysis of Azocoll substrate generates soluble colored fragments from the insoluble Azocoll substrate. Wound fluid samples were incubated alone or with the inhibitors. Controls included incubation of the Azocoll substrate with the assay buffer to measure spontaneous degradation of the substrate. A standard curve for digestion of the Azocoll substrate was generated by incubation of the Azocoll with crude bacterial collagenase. Protease levels were expressed as net μg of collagenase equivalent per ml of chronic wound fluid. In the figures, certain of the wound fluids are referred to by an individual name.
For these experiments, due to the different solubility properties of the inhibitors, different techniques were utilized. […] S1209 was dissolved in 1% DMSO then dissolved in 10 mM citrate, pH 5.5, containing 0.05% methyl cellulose. 39A was dissolved in propylene glycol (to give a final concentration of 2.4%) then dissolved in 1 mM CaCl2, […] Tris-Cl, pH 7.8. 21A was dissolved in propylene glycol (2.4%) methyl cellulose (0.05%) and 10 mM citrate, pH 8.

[4] = test system: protease activity in open and chronic wound fluids; assay: Azocoll assay of protease activity in open and chronic wound fluids; assay type: biochemical, human
Experimental: as §1, §2, §3, §4
These inhibitors were compared to certain other inhibitors and these were UL001 [HSCH2 CH(CH2 CH(CH3)2)CO--Phe--Ala--NH2 ] obtained from Peptides International and MP506, obtained from Elastin Products. EDTA (ethylenediamine tetraacetic acid) and PMSF (phenylmethylsulfonyl fluoride) were also studied.
as §5

[5] = test system: infiltration of neutrophils in the peritoneal cavity; assay: thioglycollate induced peritonitis assay; assay type: in vivo, Balb/c male mice; details: 800 μg/ml, 1 ml/animal i.p. at 0.5, 1.0, 2.0 hr; p=0.0141
Experimental: 6-8 week old Balb/c male mice were used (n=10 each for the treated and control groups). Thioglycollate suspension (5.9 g/l in deionized water) was boiled until the color was golden, then cooled yielding a pink color. The lavage solution consisted of saline supplemented with 0.1% bovine serum albumin (100 mg/100 ml) and 5U heparin/ml.
Cells were collected by lavage at T=3.0 hr. post thioglycollate administration. The animals were euthanized by CO2 asphyxiation, and the abdominal skin was cut with surgical scissors to reveal the peritoneal cavity. Five ml of lavage fluid was injected into the peritoneum, and a suspension was made by gentle massage. The fluid was removed by syringe, recovering about 80% of the injected fluid. Total cell counts in the lavage fluid were determined by Coulter Counter.

[6] = test system: B16-F10 murine melanoma; assay: experimental metastasis assay in C57 mice; assay type: in vivo, Female C57 BL/6 mice; details: days 35-37; 150 mg/kg/d ip; p<0.05
Experimental: Female C57 BL/6 mice, 4-6 weeks old (15-20 grams), from Simonsen Laboratories (Gilroy, Calif.) were used for this assay.
The B16-F10 murine melanoma was obtained from the American Type Tissue Culture Collection, and routinely propagated in DMEM (Dulbecco's modified eagles medium)+10% fetal calf serum in plastic tissue culture flasks in a humidified 5% CO2 incubator at 37° C. B16-F10 tumor cells were harvested with trypsin-EDTA (ethylenediamine-tetraacetic acid), washed with PBS (phosphate buffered saline, 2x), resuspended at a concentration of 5×10^5 cells/ml, and held on ice prior to injection. Animals were challenged with 5×10^4 cells in a volume of 0.1 ml intravenously (10 animals/treatment group). Animals were randomly distributed prior to assignment to treatment groups.
Survival times were recorded for animals in the various treatment groups, and results were evaluated using Chi-Squared statistical analysis.

Stromelysin, sequence (P08254 100-477): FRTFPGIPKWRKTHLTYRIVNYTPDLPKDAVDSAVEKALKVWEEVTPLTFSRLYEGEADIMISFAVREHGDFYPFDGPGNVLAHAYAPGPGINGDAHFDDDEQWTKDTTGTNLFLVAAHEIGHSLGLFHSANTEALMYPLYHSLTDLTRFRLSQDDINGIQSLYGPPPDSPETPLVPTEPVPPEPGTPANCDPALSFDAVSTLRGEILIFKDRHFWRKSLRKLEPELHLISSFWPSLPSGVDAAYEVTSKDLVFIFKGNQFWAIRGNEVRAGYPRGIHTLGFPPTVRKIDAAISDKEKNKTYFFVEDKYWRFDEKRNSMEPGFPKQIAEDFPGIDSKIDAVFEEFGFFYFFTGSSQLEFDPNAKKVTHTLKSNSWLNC

With `CNC(=O)[C@H](Cc1c[nH]c2ccccc12)NC(=O)[C@@H](CC(=O)NO)CC(C)C` [Compound 5A, N-[D,L-2-isobutyl-3-(N'-hydroxycarbonylamido)-propanoyl]-tryptophan methylamide] the Ki [1] was 27 nM, the “corneal vessel growth versus controls” value [2] was “vessels much shorter and/or much finer than in the controls, barely filling with ink” and the “effective concentrations (order of magnitude)” value ([3]; FIG. 4) was “μM”. For the same compound, the “inhibition of protease activity of a chronic wound fluid” value ([3]; FIG. 4) was “effectively inhibited; also recorded: much more potent that EDTA”, the “inhibition of proteolytic degradation of Azocoll” value ([3]; FIG. 4, 0.4 μg/ml (0.1 μM)) was “approximately 92%” and the “inhibition of proteolytic degradation of Azocoll” value ([3]; FIG. 4, 4 μg/ml (1 μM)) was “approximately 92%”. The “inhibition of proteolytic degradation of Azocoll” value ([3]; FIG. 4, 4 μg/ml (10 μM)) was “approximately 96%”, the “inhibition of proteolytic degradation of Azocoll” value ([3]; FIG. 4, 40 μg/ml (100 μM)) was “approximately 96%” and the “protease activity of chronic wound fluid after addition of inhibitor” value ([3]; FIG. 7, 800 μg/ml, untreated 284±52) was 45±1 μg collagenase equivalents/ml of wound fluid. The “inhibition of protease activity of chronic wound fluid” value ([3]; FIG. 7, highest concentration (800 μg/ml)) was 84%, the “protease activity of chronic wound fluid after addition of inhibitor, lower concentrations” value ([3]; FIG. 7, lower concentrations, untreated 284±52) was “up to 90±6 μg collagenase equivalents/ml of wound fluid” and the “effect on proteolytic activity of open and chronic wound fluids” value ([4]; FIG. 5) was “very effective inhibitors”. For the same compound, the “inhibition of Azocoll-degrading proteases in wound fluids” value ([4]; FIG. 6) was “very effectively; also recorded: very effective inhibitors”, the “reduction of proteolytic activity in open or chronic wound fluids” value ([4]; fluids with high levels of Azocoll-degrading protease activity) was 95% and the “average number of cells in the peritoneum versus vehicle” value [5] was “significantly reduced”. For the same compound, the “survival of mice versus vehicle control” value [6] was “significant increase in the survival”.
